Source: PMC4476725 (PLoS Pathogens, 2015)
Like-named read-outs stand apart in the source and are kept apart here.

Legend:
HCV replicon = assay: microbe, parasite or virus in culture; type: cell-based; details: Hepatitis C virus
[1] = tested on: Parainfluenza virus type-3; assay: PIV-3 antiviral assay in A549 cells; type: cell-based, human PIV-3 C243 strain; details: 168 h, 7 days, qRT-PCR
RSV replicon = assay: RSV subgenomic replicon assay (luciferase); type: cell-based, Respiratory syncytial virus; details: human respiratory syncytial virus; RSV replicon
Description: The RSV subgenomic replicon (Apath, Brooklyn, NY, USA) was used as previously described. The HeLa-derived cells containing the stable RSV replicon were cultured in DMEM containing 4500 mg/L D-glucose, L-glutamine, and 110 mg/L sodium pyruvate. The medium was further supplemented with 10% (v/v) FBS (Mediatech), 1% (v/v) penicillin/streptomycin (Mediatech), and 10 μg/mL of Blasticidin (BSD) (Invivogen). Cells were maintained at 37°C in a humidified 5% CO2 atmosphere. On the first day, 5000 RSV replicon cells per well were plated in a 96-well plate. On the following day, compounds to be tested were solubilized in 100% DMSO to 100 × the desired final testing concentration. Cells were incubated with compounds for 7 days at 37°C in a 5% CO2 atmosphere before measurement of the luciferase readout. Cell viability (CC50) was measured with a CellTiter-Glo cell proliferation assay (Promega).

RSV A2 [2] = assay: Three-dimensional lung model, primary human tracheal/bronchial epithelial cells infected with RSV A2; type: cell-based; details: human respiratory syncytial virus, Epithelial cell
in vitro [3] = details: human
RSV B1 = assay: RSV inhibition by qRT-PCR in HEp-2 cells, RSV B1 strain; type: cell-based; details: human respiratory syncytial virus, 120 h, 5 days, n = 3, read-out: EC50, inhibition of RNA replication of RSV B1
in vitro [4] = details: human; remark: listed apart in the source
Rhinovirus 1b = assay: Human rhinovirus assay in HeLa-OHIO cells (CPE); type: cell-based; details: Enterovirus
in vitro [5] = details: human; remark: listed apart in the source
[6] = tested on: influenza strain A/WSN/33 (H1N1); assay: Influenza assay in A549 cells (neuraminidase readout); type: cell-based; details: Influenza virus, 20h
[7] = tested on: RSV A and B clinical isolates; assay: microbe, parasite or virus in culture; type: cell-based; details: human respiratory syncytial virus
[8] = target: QUAD-mutant RSV polymerase (Human respiratory syncytial virus A, UniProt P28887, A789V/I796V/L795I/M628L); type: cell-based
in vitro [9] = details: human; remark: listed apart in the source
[10] = tested on: Vesicular stomatitis virus; assay: microbe, parasite or virus in culture; type: cell-based; details: A549, 48 h
RSV A2 [11] = assay: RSV inhibition by qRT-PCR in HEp-2 cells, RSV A2 strain; type: cell-based; details: human respiratory syncytial virus
[12] = target: RSV polymerase QUAD mutant (Human respiratory syncytial virus A, UniProt P28887, A789V/I796V/L795I/M628L); assay: Single nucleotide incorporation by recombinant RSV L-P polymerase, QUAD mutant; type: biochemical; details: recombinant L-P enzymes
QUAD RNP complex = QUAD RNP complex (Human respiratory syncytial virus A, UniProt P28887, A789V/I796V/L795I/M628L); type: biochemical
IAV polymerase = IAV polymerase (Influenza A virus, UniProt P03431); assay: IAV polymerase gel-based assay; type: biochemical
PIV-1 polymerase = PIV-1 polymerase (Human respirovirus 1, UniProt Q8QT26); assay: biochemical; details: Parainfluenza virus type-1 polymerase
RSV RNP complex = RSV RNP complex (Human respiratory syncytial virus A, UniProt P28887); assay: biochemical; type: biochemical
[13] = target: T1, wild-type RSV L-P RNA polymerase complex (Human respiratory syncytial virus A, UniProt P28887); type: biochemical; details: Fig 5A
T1 construct: made in house; host or cells: insect cells

[14] = target: human mitochondrial RNA polymerase (Homo sapiens, UniProt O00411); assay: DdRp assay with human mitochondrial RNA polymerase, single turnover; type: biochemical; details: 100 μM of each NTP
HCV polymerase = HCV polymerase (Hepatitis C virus genotype 1b, UniProt Q9WMX2); assay: HCV polymerase inhibition assay; type: biochemical
[15] = HEp-2, Isolate A1997-12-35, RSV A
[16] = HEp-2, Isolate A1998-03-02, RSV A
[17] = HEp-2, Isolate A1998-12-21, RSV A
[18] = HEp-2, Isolate A2000-03-04, RSV A
[19] = HEp-2, Isolate A2001-02-20, RSV A
[20] = HEp-2, Isolate A2001-03-12, RSV A

SMILES: Nc1ccn([C@@H]2O[C@@](CO)(CCl)[C@@H](O)[C@H]2F)c(=O)n1 [ALS-8112, 2'-fluoro-4'-chloromethyl (2'F-4'ClCH2) cytidine]
- EC50 (HCV replicon; Huh-7, HCV replicon, read-out: HCV EC50): > 100 µM
- EC50 (HCV replicon; Huh-7 replicon, read-out: EC50): > 100 µM
- EC50 [1]: 1.3 µM
- EC50 (RSV replicon): 0.15 µM
- EC50 (RSV A2 [2]; Disease: Asthma, read-out: EC50): 0.73 µM
- EC90 (RSV A2 [2]; Disease: Asthma, read-out: EC90): 2.7 µM
- EC50 (RSV A2 [2]; donor one, Disease: None, read-out: EC50): 0.37 µM
- EC90 (RSV A2 [2]; donor one, Disease: None, read-out: EC90): 2.7 µM
- EC50 (RSV A2 [2]; donor two, Disease: None, read-out: EC50): 0.09 µM
- EC90 (RSV A2 [2]; donor two, Disease: None, read-out: EC90): 1.3 µM
- EC50 (RSV A2 [2]; range over human donor cells (n = 3), read-out: EC50, RSV RNA replication in donor cells): 0.09 to 0.73 µM
- EC90 (RSV A2 [2]; range over human donor cells (n = 3), read-out: EC90, RSV RNA replication in donor cells): 1.3 to 2.7 µM
- CC50 (in vitro [3]): > 100 µM
- EC50 (RSV B1): 0.132 ± 0.055 µM
- CC50 (in vitro [4]): > 100 µM
- EC50 (Rhinovirus 1b): > 100 µM
- CC50 (in vitro [5]): > 100 µM
- EC50 [6]: > 100 µM
- EC50 ([7]; HEp-2, Isolate 1144, RSV B): 0.29 ± 0.02 µM
- EC90 ([7]; HEp-2, Isolate 1144, RSV B): 1.47 ± 0.22 µM
- EC50 ([7]; HEp-2, Isolate 1262, RSV B): 0.11 ± 0.03 µM
- EC90 ([7]; HEp-2, Isolate 1262, RSV B): 2.18 ± 0.27 µM
- EC50 ([7]; HEp-2, Isolate 9320, RSV B): 0.09 ± 0.03 µM
- EC90 ([7]; HEp-2, Isolate 9320, RSV B): 0.96 ± 0.16 µM
- EC50 ([7]; HEp-2, Isolate 18537, RSV B): 0.21 ± 0.06 µM
- EC90 ([7]; HEp-2, Isolate 18537, RSV B): 0.99 ± 0.22 µM
- EC50 [7, 15]: 0.18 ± 0.04 µM
- EC90 [7, 15]: 2.46 ± 0.15 µM
- EC50 [7, 16]: 0.26 ± 0.06 µM
- EC90 [7, 16]: 2.15 ± 0.27 µM
- EC50 [7, 17]: 0.09 ± 0.02 µM
- EC90 [7, 17]: 1.11 ± 0.54 µM
- EC50 [7, 18]: 0.18 ± 0.02 µM
- EC90 [7, 18]: 2.18 ± 0.24 µM
- EC50 [7, 19]: 0.1 ± 0.01 µM
- EC90 [7, 19]: 1.1 ± 0.53 µM
- EC50 [7, 20]: 0.45 ± 0.07 µM
- EC90 [7, 20]: 2.33 ± 0.35 µM
- EC50 ([7]; HEp-2, Isolate Pep 121, RSV B): 0.32 ± 0.07 µM
- EC90 ([7]; HEp-2, Isolate Pep 121, RSV B): 2.07 ± 0.43 µM
- CC50 (A549; A549 cells, Influenza virus row): > 100 µM
- CC50 (A549; human): > 100 µM
- maximum inhibition, QUAD-mutant minigenome [8]: about 60%
- CC50 (in vitro [9]): > 100 µM
- EC50 [10]: 3.4 µM
- EC50 (RSV A2 [11]; 120 h, HEp-2 cells, 5 days, qRT-PCR, n = 3, read-out: EC50, inhibition of RNA replication of RSV A2): 0.153 ± 0.076 µM
- EC50 (RSV A2 [11]; HEp-2, read-out: EC50): 0.15 µM

SMILES: Nc1ccn([C@@H]2O[C@](CCl)(COP(=O)(O)OP(=O)(O)OP(=O)(O)O)[C@@H](O)[C@H]2F)c(=O)n1 [ALS-8112-TP, 2'-Fluoro-4'-Chloromethyl-Cytidine Triphosphate]
- increase in discrimination, QUAD vs WT (resistance level) [12]: 4.6 fold
- inhibition of RdRp activity of the QUAD RNP complex (QUAD RNP complex): 57%
- loss in inhibition potency compared to the wild-type protein (QUAD RNP complex): 145 fold
- IC50 (IAV polymerase; Influenza virus polymerase, based on a single 100 μM concentration): > 100 µM
- inhibition at 100 µM (IAV polymerase; at 100 μM): 20.5%
- IC50 (PIV-1 polymerase): 2.3 µM
- inhibition of RSV RNP complex (in words) (RSV RNP complex; Fig 5B): efficiently inhibit RSV
- mode of inhibition of RSV RNP complex (RSV RNP complex; NTP competition, 1 or 100 μM NTP, 30 μM inhibitor): competitive inhibitor of cytidine monophosphate (CMP) incorporation
- viral RNA transcription activity inhibited (in words) (RSV RNP complex; crude RNP complex from virus-infected cells): inhibited
- substrate and chain termination profile with recombinant RSV polymerase (in words) [13]: both substrates and chain terminators
- recognition as substrate by human mitochondrial RNA polymerase (in words) [14]: not recognized as a substrate
- inhibition of HCV polymerase (in words) (HCV polymerase; Fig 5B): not HCV polymerase
- IC50 (HCV polymerase; Hepatitis C virus polymerase, read-out: IC50): > 33 µM
- IC50 (HCV polymerase; second symbol of RSV / HCV, read-out: HCV polymerase inhibition class (IC50)): > 10 µM
